Measured values: ChEMBL document CHEMBL4665648, “Potent and selective inhibitors of receptor-interacting protein kinase 1 that lack an aromatic back pocket group” (Bioorg Med Chem Lett, 2019)

Columns and labels:
[1] = biological target: Aurora kinase B (Homo sapiens) (UniProt Q96GD4); experiment: Inhibition of recombinant human His-tagged full length Aurora B expressed in baculovirus expression system using Ser/Thr 01 as substrate at 10 uM incubated for 60 mins by Z'-Lyte assay relative to control
Aurora kinase B (Homo sapiens), sequence (Q96GD4 whole entry): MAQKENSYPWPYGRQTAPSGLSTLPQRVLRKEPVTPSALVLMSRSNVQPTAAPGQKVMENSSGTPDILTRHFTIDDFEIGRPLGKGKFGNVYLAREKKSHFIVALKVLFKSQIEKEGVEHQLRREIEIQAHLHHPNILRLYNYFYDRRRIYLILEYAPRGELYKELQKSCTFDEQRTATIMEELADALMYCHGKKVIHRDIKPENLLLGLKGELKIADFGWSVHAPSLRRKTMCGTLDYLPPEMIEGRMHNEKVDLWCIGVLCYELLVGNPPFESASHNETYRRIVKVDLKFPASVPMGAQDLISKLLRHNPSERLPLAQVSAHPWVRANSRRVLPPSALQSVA

[2] = Clearance in Sprague-Dawley rat at 0.5 mg/kg, iv or 2 mg/kg, po; format: ADME, organism-based; settings: in vivo
[3] = biological target: ALK tyrosine kinase receptor (Homo sapiens) (UniProt Q9UM73); experiment: Inhibition of recombinant human GST-tagged […] (1058 to 1620 residues) expressed in baculovirus expression system using Tyr 01 as substrate at 10 uM incubated for 60 mins by Z'-Lyte assay relative to control
[4] = biological target: RAC-beta serine/threonine-protein kinase (Homo sapiens) (UniProt P31751); experiment: Inhibition of recombinant human His-tagged full length AKT2 expressed in baculovirus expression system using Ser/Thr 06 as substrate at 10 uM incubated for 60 mins by Z'-Lyte assay relative to control
[5] = biological target: CDK8/Cyclin C (Homo sapiens) (UniProt P49336+P24863); experiment: Inhibition of tracer 236 binding to recombinant human His-tagged full length CDK8/Cyclin C expressed in baculovirus expression system at 10 uM incubated for 60 mins by Lanthascreen assay relative to control
[6] = biological target: Casein kinase I isoform gamma-1 (Homo sapiens) (UniProt Q9HCP0); experiment: Inhibition of recombinant human GST-tagged full length CK1gamma1 expressed in baculovirus expression system using Ser/Thr 05 as substrate at 10 uM incubated for 60 mins by Z'-Lyte assay relative to control
[7] = biological target: Tyrosine-protein kinase CSK (Homo sapiens) (UniProt P41240); experiment: Inhibition of recombinant human GST-tagged full length CSK expressed in Escherichia coli expression system using Tyr 02 as substrate at 10 uM incubated for 60 mins by Z'-Lyte assay relative to control
[8] = biological target: Mitogen-activated protein kinase 1 (Homo sapiens) (UniProt P28482); experiment: Inhibition of recombinant human GST-tagged full length ERK2 expressed in baculovirus expression system using Ser/Thr 03 as substrate at 10 uM incubated for 60 mins by Z'-Lyte assay relative to control
Mitogen-activated protein kinase 1 (Homo sapiens), sequence (P28482 whole entry): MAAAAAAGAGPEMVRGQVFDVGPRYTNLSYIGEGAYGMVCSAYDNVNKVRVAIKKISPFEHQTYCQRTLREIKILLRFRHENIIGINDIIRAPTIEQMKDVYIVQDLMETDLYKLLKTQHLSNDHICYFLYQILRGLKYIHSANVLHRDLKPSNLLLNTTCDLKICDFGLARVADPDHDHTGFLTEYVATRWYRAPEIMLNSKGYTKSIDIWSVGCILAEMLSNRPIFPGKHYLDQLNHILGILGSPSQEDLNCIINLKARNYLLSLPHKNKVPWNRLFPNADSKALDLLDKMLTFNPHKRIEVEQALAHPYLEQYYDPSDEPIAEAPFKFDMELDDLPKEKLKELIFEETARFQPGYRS

[9] = biological target: Focal adhesion kinase 1 (Homo sapiens) (UniProt Q05397); experiment: Inhibition of recombinant human GST-tagged full length FAK expressed in baculovirus expression system using Tyr 07 as substrate at 10 uM incubated for 60 mins by Z'-Lyte assay relative to control
Focal adhesion kinase 1 (Homo sapiens), sequence (Q05397 2-1052 limits assumed): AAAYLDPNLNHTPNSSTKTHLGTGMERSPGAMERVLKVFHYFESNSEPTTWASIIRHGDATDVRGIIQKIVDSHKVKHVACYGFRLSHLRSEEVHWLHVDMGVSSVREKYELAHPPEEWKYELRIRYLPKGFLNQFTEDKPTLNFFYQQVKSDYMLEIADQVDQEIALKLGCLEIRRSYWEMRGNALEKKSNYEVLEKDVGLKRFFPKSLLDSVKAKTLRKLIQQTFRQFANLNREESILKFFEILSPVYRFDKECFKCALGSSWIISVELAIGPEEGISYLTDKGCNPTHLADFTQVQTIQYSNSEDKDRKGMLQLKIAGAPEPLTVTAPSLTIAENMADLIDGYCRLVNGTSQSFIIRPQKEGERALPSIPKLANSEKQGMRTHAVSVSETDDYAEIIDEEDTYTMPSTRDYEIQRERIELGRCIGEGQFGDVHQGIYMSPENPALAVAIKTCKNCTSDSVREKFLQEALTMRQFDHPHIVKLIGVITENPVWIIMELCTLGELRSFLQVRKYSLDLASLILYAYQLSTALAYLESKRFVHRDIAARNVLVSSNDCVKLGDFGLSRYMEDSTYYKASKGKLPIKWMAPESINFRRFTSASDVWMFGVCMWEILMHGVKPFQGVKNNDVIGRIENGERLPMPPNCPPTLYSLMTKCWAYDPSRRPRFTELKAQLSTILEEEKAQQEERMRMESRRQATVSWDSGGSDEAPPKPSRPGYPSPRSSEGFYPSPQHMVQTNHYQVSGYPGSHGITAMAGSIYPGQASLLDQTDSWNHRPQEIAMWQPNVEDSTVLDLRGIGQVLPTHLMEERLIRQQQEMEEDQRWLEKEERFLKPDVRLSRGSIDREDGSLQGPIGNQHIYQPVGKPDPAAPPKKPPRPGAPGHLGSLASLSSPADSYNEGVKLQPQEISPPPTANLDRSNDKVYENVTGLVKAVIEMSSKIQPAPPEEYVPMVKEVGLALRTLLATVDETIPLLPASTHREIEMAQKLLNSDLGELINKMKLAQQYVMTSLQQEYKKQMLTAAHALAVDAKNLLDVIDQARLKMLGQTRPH

[10] = biological target: Insulin receptor-related protein (Homo sapiens) (UniProt P14616); experiment: Inhibition of recombinant human GST-tagged IRR (944 to 1297 residues) expressed in baculovirus expression system using Tyr 04 as substrate at 10 uM incubated for 60 mins by Z'-lyte assay relative to control
[11] = biological target: Tyrosine-protein kinase JAK1 (Homo sapiens) (UniProt P23458); experiment: Inhibition of recombinant human GST-tagged JAK1 (866 to 1154 residues) expressed in baculovirus expression system using Tyr 06 as substrate at 10 uM incubated for 60 mins by Z'-lyte assay relative to control
[12] = biological target: Serine/threonine-protein kinase 3 (Homo sapiens) (UniProt Q13188); experiment: Inhibition of recombinant human GST-tagged full length MST2 expressed in baculovirus expression system using Ser/Thr 07 as substrate at 10 uM incubated for 60 mins by Z'-lyte assay relative to control
[13] = biological target: Myosin light chain kinase, smooth muscle (Homo sapiens) (UniProt Q15746); experiment: Inhibition of tracer 236 binding to recombinant human GST-tagged MYLK (1428 to 1771 residues) expressed in baculovirus expression system at 10 uM incubated for 60 mins by Lanthascreen assay relative to control
[14] = biological target: Hepatocyte growth factor receptor (Homo sapiens) (UniProt P08581); experiment: Inhibition of recombinant human His-tagged MET (956 to 1390 residues) expressed in baculovirus expression system using Tyr 06 as substrate at 10 uM incubated for 60 mins by Z'-lyte assay relative to control
[15] = biological target: Serine/threonine-protein kinase Nek1 (Homo sapiens) (UniProt Q96PY6); experiment: Inhibition of recombinant human GST-tagged NEK1 (1 to 505 residues) expressed in baculovirus expression system using Ser/Thr 07 as substrate at 10 uM incubated for 60 mins by Z'-lyte assay relative to control
[16] = biological target: Serine/threonine-protein kinase PLK1 (Homo sapiens) (UniProt P53350); experiment: Inhibition of recombinant human His-tagged full length PLK1 expressed in baculovirus expression system using Ser/Thr 16 as substrate at 10 uM incubated for 60 mins by Z'-lyte assay relative to control
Serine/threonine-protein kinase PLK1 (Homo sapiens), sequence (P53350 whole entry): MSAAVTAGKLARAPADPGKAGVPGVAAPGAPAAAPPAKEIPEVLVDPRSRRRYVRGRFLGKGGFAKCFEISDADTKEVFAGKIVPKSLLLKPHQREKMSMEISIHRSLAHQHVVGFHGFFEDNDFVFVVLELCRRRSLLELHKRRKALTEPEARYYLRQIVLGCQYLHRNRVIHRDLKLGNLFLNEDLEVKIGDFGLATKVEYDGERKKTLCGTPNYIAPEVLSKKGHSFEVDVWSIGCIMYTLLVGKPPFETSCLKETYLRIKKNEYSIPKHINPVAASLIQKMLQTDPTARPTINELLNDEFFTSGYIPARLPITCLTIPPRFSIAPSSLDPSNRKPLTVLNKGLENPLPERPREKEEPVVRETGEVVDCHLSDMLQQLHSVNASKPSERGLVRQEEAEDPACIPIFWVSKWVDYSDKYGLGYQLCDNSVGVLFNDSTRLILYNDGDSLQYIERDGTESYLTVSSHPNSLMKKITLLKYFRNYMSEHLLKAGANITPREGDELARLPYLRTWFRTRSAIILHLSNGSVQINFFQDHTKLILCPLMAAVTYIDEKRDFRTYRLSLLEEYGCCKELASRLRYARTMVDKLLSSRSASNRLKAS

[17] = biological target: SRSF protein kinase 1 (Homo sapiens) (UniProt Q96SB4); experiment: Inhibition of recombinant human His-tagged full length SRPK1 expressed in baculovirus expression system using Ser/Thr 18 as substrate at 10 uM incubated for 60 mins by Z'-Lyte assay relative to control
[18] = biological target: Serine/threonine-protein kinase 33 (Homo sapiens) (UniProt Q9BYT3); experiment: Inhibition of tracer 236 binding to recombinant human His-tagged full length STK33 expressed in baculovirus expression system at 10 uM incubated for 60 mins by Lanthascreen assay relative to control
Serine/threonine-protein kinase 33 (Homo sapiens), sequence (Q9BYT3 whole entry, looked up): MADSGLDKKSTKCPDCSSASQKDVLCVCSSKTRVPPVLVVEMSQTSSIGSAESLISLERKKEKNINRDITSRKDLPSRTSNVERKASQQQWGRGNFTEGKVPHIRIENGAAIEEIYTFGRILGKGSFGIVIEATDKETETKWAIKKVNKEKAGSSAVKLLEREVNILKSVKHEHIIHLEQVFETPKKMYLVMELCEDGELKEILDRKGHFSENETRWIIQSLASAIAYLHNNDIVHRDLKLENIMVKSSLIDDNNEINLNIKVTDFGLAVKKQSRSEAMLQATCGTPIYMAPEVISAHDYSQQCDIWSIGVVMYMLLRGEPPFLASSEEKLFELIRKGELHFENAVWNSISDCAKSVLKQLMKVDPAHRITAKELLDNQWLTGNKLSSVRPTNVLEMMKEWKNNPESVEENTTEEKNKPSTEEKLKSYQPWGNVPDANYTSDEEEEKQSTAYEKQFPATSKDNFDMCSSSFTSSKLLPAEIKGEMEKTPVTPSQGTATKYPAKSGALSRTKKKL

[19] = biological target: Tyrosine-protein kinase Srms (Homo sapiens) (UniProt Q9H3Y6); experiment: Inhibition of recombinant human GST-tagged full length SRM expressed in baculovirus expression system using Tyr 01 as substrate at 10 uM incubated for 60 mins by Z'-Lyte assay relative to control
[20] = biological target: Tyrosine-protein kinase SYK (Homo sapiens) (UniProt P43405); experiment: Inhibition of recombinant human N-terminalGST-tagged full length SYK expressed in baculovirus expression system using Tyr 02 as substrate at 10 uM incubated for 60 mins by Z'-Lyte assay relative to control
[21] = biological target: Non-receptor tyrosine-protein kinase TYK2 (Homo sapiens) (UniProt P29597); experiment: Inhibition of recombinant human N-terminal GST-tagged TYK2 (833 to 1187 residues) expressed in baculovirus expression system using Tyr 03 as substrate at 10 uM incubated for 60 mins by Z'-Lyte assay relative to control
Non-receptor tyrosine-protein kinase TYK2 (Homo sapiens), sequence (P29597 whole entry, the tested form may be a part): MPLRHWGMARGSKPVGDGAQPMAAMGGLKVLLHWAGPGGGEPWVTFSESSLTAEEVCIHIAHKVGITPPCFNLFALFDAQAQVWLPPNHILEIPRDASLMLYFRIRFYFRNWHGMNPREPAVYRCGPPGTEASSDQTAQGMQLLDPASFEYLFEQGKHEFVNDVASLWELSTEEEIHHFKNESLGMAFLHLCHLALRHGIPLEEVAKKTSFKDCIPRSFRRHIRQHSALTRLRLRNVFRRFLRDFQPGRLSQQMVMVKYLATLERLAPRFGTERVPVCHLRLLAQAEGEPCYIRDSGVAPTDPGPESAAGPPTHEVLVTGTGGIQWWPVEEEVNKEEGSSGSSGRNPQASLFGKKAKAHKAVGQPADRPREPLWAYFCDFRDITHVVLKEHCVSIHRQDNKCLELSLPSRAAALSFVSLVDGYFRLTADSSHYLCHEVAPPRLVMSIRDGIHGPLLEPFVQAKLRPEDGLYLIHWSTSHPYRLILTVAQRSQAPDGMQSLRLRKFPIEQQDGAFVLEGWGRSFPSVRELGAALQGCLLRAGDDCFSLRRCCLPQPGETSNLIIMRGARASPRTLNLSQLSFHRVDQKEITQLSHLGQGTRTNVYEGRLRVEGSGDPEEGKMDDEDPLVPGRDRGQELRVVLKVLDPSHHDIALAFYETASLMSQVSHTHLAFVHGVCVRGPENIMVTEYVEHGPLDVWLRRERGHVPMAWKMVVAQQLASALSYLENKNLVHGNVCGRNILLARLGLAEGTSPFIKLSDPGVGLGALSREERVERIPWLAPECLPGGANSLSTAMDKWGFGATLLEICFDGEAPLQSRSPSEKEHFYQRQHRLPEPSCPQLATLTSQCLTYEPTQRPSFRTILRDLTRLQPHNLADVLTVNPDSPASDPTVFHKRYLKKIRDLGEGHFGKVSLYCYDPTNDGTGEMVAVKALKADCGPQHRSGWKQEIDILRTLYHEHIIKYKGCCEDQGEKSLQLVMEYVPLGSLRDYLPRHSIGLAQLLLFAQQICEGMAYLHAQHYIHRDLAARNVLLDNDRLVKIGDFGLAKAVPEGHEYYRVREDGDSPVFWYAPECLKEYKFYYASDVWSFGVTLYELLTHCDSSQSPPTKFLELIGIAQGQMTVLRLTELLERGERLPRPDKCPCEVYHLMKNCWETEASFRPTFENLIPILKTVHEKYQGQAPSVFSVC

[22] = biological target: Mitogen-activated protein kinase kinase kinase 8 (Homo sapiens) (UniProt P41279); experiment: Inhibition of recombinant human GST-tagged TPL2 (30 to 397 residues) expressed in baculovirus expression system using Ser/Thr 03 as substrate at 10 uM incubated for 60 mins by Z'-Lyte assay relative to control
[23] = biological target: Serine/threonine-protein kinase 25 (Homo sapiens) (UniProt O00506); experiment: Inhibition of recombinant human GST-tagged full length YSK1 expressed in baculovirus expression system using Ser/Thr 07 as substrate at 10 uM incubated for 60 mins by Z'-Lyte assay relative to control
Serine/threonine-protein kinase 25 (Homo sapiens), sequence (O00506 whole entry, looked up): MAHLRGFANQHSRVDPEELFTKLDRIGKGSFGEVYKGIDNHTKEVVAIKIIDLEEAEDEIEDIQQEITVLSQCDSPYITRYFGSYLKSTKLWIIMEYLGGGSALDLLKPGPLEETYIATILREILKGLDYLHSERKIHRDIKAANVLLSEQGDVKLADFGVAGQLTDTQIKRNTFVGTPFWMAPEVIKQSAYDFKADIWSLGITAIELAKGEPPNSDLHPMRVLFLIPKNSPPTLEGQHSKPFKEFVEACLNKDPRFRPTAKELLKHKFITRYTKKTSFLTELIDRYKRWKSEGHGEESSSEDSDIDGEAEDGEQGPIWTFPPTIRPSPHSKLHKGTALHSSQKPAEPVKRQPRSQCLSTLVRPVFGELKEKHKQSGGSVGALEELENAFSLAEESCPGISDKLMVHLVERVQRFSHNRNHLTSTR

[24] = biological target: Mitogen-activated protein kinase 11 (Homo sapiens) (UniProt Q15759); experiment: Inhibition of recombinant human His-tagged full length p38 beta expressed in baculovirus expression system using Ser/Thr 15 as substrate at 10 uM incubated for 60 mins by Z'-Lyte assay relative to control
Mitogen-activated protein kinase 11 (Homo sapiens), sequence (Q15759 whole entry): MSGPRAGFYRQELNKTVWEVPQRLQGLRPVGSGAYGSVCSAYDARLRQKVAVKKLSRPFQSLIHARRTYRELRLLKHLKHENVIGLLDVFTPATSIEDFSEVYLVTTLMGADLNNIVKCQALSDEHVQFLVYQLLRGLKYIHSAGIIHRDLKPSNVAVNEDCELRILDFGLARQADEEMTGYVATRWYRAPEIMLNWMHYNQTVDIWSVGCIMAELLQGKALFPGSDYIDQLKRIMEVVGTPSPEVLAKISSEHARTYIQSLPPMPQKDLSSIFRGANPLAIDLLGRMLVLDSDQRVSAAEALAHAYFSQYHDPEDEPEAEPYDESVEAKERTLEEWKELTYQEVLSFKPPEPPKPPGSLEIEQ

CN1C(=O)[C@@H](NC(=O)c2n[nH]c3ncc(C(F)(F)C(F)(F)F)cc23)COc2ccccc21
inhibition [1]: 2.5% | clearance [2]: 7.1 mL/min/kg | inhibition [3]: 3% | inhibition [4]: 7.5% | inhibition [5]: 14% | inhibition [6]: 5% | inhibition [7]: 2.5% | inhibition [8]: 7% | inhibition [9]: 0.5% | inhibition [10]: 6.5% | inhibition [11]: 5% | inhibition [12]: 1.5% | inhibition [13]: 7.5% | inhibition [14]: 4.5% | inhibition [15]: 9% | inhibition [16]: 2.5% | inhibition [17]: -2.5% | inhibition [18]: 1% | inhibition [19]: 2.5% | inhibition [20]: 6% | inhibition [21]: 5.5% | inhibition [22]: 6.5% | inhibition [23]: 7% | inhibition [24]: 9%
